# Measured values reported in PubChem BioAssay (NCI).
#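 Five concentrations, 48 hours, 96-well plates. GI50 is the concentration that inhibits growth by half. TGI denotes the concentration required for complete inhibition of growth.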
# Key:
# Experiment in all cases: NCI anticancer screen, dose series, 48 h
# MCF7 breast = test system: MCF7 breast
# HCT-116 colon = test system: HCT-116 colon
# MDA-MB-231 breast = test system: MDA-MB-231 breast
# OVCAR-3 ovarian = test system: OVCAR-3 ovarian
# KM12 colon = test system: KM12 colon
# LOX IMVI melanoma = test system: LOX IMVI melanoma
# UACC-62 melanoma = test system: UACC-62 melanoma
# SN12C renal = test system: SN12C renal
# K-562 leukemia = test system: K-562 leukemia
# OVCAR-8 ovarian = test system: OVCAR-8 ovarian
# SNB-19 CNS = test system: SNB-19 CNS
# HOP-62 NSCLC = test system: HOP-62 NSCLC
# 786-0 renal = test system: 786-0 renal
# SK-MEL-5 melanoma = test system: SK-MEL-5 melanoma
# A549 NSCLC = test system: A549 NSCLC
# SF-539 CNS = test system: SF-539 CNS
# A498 renal = test system: A498 renal
# MOLT-4 leukemia = test system: MOLT-4 leukemia
# CCRF-CEM leukemia = test system: CCRF-CEM leukemia
# M14 melanoma = test system: M14 melanoma
# BT-549 breast = test system: BT-549 breast
# SK-MEL-28 melanoma = test system: SK-MEL-28 melanoma
# SNB-75 CNS = test system: SNB-75 CNS
# UO-31 renal = test system: UO-31 renal
# NCI-H460 lung = test system: NCI-H460 lung
# RXF 393 renal = test system: RXF 393 renal
# HL-60(TB) leukemia = test system: HL-60(TB) leukemia
# EKVX NSCLC = test system: EKVX NSCLC
# U251 CNS = test system: U251 CNS
# HT29 colon = test system: HT29 colon
# T-47D breast = test system: T-47D breast
# HS 578T breast = test system: HS 578T breast
# COLO 205 colon = test system: COLO 205 colon
# RPMI-8226 leukemia = test system: RPMI-8226 leukemia
# IGROV1 ovarian = test system: IGROV1 ovarian
# CAKI-1 renal = test system: CAKI-1 renal
# NCI-H522 lung = test system: NCI-H522 lung
# PC-3 prostate = test system: PC-3 prostate
# SF-295 CNS = test system: SF-295 CNS
# SK-OV-3 ovarian = test system: SK-OV-3 ovarian
# NCI/ADR-RES ovarian = test system: NCI/ADR-RES ovarian
# ACHN renal = test system: ACHN renal
# HCT-15 colon = test system: HCT-15 colon
# SK-MEL-2 melanoma = test system: SK-MEL-2 melanoma
# OVCAR-5 ovarian = test system: OVCAR-5 ovarian
# SW-620 colon = test system: SW-620 colon
# NCI-H23 lung = test system: NCI-H23 lung
# HCC-2998 colon = test system: HCC-2998 colon
# NCI-H226 lung = test system: NCI-H226 lung
# SR leukemia = test system: SR leukemia
# SF-268 CNS = test system: SF-268 CNS
# UACC-257 melanoma = test system: UACC-257 melanoma
# DU-145 prostate = test system: DU-145 prostate
# MDA-MB-435 = test system: MDA-MB-435
# TK-10 renal = test system: TK-10 renal
# OVCAR-4 ovarian = test system: OVCAR-4 ovarian
compound,measurement,setting,value
CC(C)(O)/C=C/C(=O)[C@](C)(O)[C@H]1[C@H](O)C[C@@]2(C)[C@H]3CC=C4[C@@H](C[C@H](O)C(=O)C4(C)C)[C@]3(C)C(=O)C[C@]12C,GI50,MCF7 breast,31.5 nM
same,TGI,MCF7 breast,> 16700 nM
same,GI50,HCT-116 colon,24.3 nM
same,TGI,HCT-116 colon,7140 nM
same,GI50,MDA-MB-231 breast,28.1 nM
same,TGI,MDA-MB-231 breast,307 nM
same,GI50,OVCAR-3 ovarian,39.5 nM
same,TGI,OVCAR-3 ovarian,1020 nM
same,GI50,KM12 colon,113 nM
same,TGI,KM12 colon,> 16700 nM
same,GI50,LOX IMVI melanoma,180 nM
same,TGI,LOX IMVI melanoma,> 3520 nM
same,GI50,UACC-62 melanoma,26.3 nM
same,TGI,UACC-62 melanoma,3720 nM
same,GI50,SN12C renal,46.6 nM
same,TGI,SN12C renal,> 12900 nM
same,GI50,K-562 leukemia,39.4 nM
same,TGI,K-562 leukemia,> 16700 nM
same,GI50,OVCAR-8 ovarian,496 nM
same,TGI,OVCAR-8 ovarian,> 16700 nM
same,GI50,SNB-19 CNS,75.2 nM
same,TGI,SNB-19 CNS,3250 nM
same,GI50,HOP-62 NSCLC,81.8 nM
same,TGI,HOP-62 NSCLC,419 nM
same,GI50,786-0 renal,51.1 nM
same,TGI,786-0 renal,249 nM
same,GI50,SK-MEL-5 melanoma,58 nM
same,TGI,SK-MEL-5 melanoma,2310 nM
same,GI50,A549 NSCLC,51.1 nM
same,TGI,A549 NSCLC,> 16700 nM
same,GI50,SF-539 CNS,16.7 nM
same,TGI,SF-539 CNS,130 nM
same,GI50,A498 renal,17.7 nM
same,TGI,A498 renal,47.3 nM
same,GI50,MOLT-4 leukemia,1170 nM
same,TGI,MOLT-4 leukemia,16300 nM
same,GI50,CCRF-CEM leukemia,20.8 nM
same,TGI,CCRF-CEM leukemia,> 8450 nM
same,GI50,M14 melanoma,17.6 nM
same,TGI,M14 melanoma,1710 nM
same,GI50,BT-549 breast,16.1 nM
same,TGI,BT-549 breast,54.6 nM
same,GI50,SK-MEL-28 melanoma,13.9 nM
same,TGI,SK-MEL-28 melanoma,39.3 nM
same,GI50,SNB-75 CNS,28.9 nM
same,TGI,SNB-75 CNS,108 nM
same,GI50,UO-31 renal,43.2 nM
same,TGI,UO-31 renal,312 nM
same,GI50,NCI-H460 lung,24.7 nM
same,TGI,NCI-H460 lung,> 16700 nM
same,GI50,RXF 393 renal,14.3 nM
same,TGI,RXF 393 renal,31.8 nM
same,GI50,HL-60(TB) leukemia,203 nM
same,TGI,HL-60(TB) leukemia,1460 nM
same,GI50,EKVX NSCLC,45.8 nM
same,TGI,EKVX NSCLC,> 16700 nM
same,GI50,U251 CNS,54.1 nM
same,TGI,U251 CNS,262 nM
same,GI50,HT29 colon,25.8 nM
same,TGI,HT29 colon,> 16700 nM
same,GI50,T-47D breast,217 nM
same,TGI,T-47D breast,> 14000 nM
same,GI50,HS 578T breast,52.9 nM
same,TGI,HS 578T breast,2730 nM
same,GI50,COLO 205 colon,27.7 nM
same,TGI,COLO 205 colon,> 16700 nM
same,GI50,RPMI-8226 leukemia,41.9 nM
same,TGI,RPMI-8226 leukemia,> 6220 nM
same,GI50,IGROV1 ovarian,70.7 nM
same,TGI,IGROV1 ovarian,460 nM
same,GI50,CAKI-1 renal,13.7 nM
same,TGI,CAKI-1 renal,49.9 nM
same,GI50,NCI-H522 lung,28.7 nM
same,TGI,NCI-H522 lung,184 nM
same,GI50,PC-3 prostate,283 nM
same,TGI,PC-3 prostate,> 16700 nM
same,GI50,SF-295 CNS,102 nM
same,TGI,SF-295 CNS,872 nM
same,GI50,SK-OV-3 ovarian,56 nM
same,TGI,SK-OV-3 ovarian,236 nM
same,GI50,NCI/ADR-RES ovarian,71.4 nM
same,GI50,ACHN renal,53.7 nM
same,TGI,ACHN renal,> 16700 nM
same,GI50,HCT-15 colon,34.4 nM
same,TGI,HCT-15 colon,> 16700 nM
same,GI50,SK-MEL-2 melanoma,16.2 nM
same,TGI,SK-MEL-2 melanoma,52.5 nM
same,GI50,OVCAR-5 ovarian,42.9 nM
same,TGI,OVCAR-5 ovarian,> 16700 nM
same,GI50,SW-620 colon,28.1 nM
same,TGI,SW-620 colon,> 16700 nM
same,GI50,NCI-H23 lung,450 nM
same,TGI,NCI-H23 lung,> 16700 nM
same,GI50,HCC-2998 colon,118 nM
same,TGI,HCC-2998 colon,> 16700 nM
same,GI50,NCI-H226 lung,29.6 nM
same,TGI,NCI-H226 lung,4660 nM
same,GI50,SR leukemia,41.4 nM
same,TGI,SR leukemia,> 16700 nM
same,GI50,SF-268 CNS,19.6 nM
same,TGI,SF-268 CNS,88.2 nM
same,GI50,UACC-257 melanoma,42 nM
same,TGI,UACC-257 melanoma,541 nM
same,GI50,DU-145 prostate,36.7 nM
same,TGI,DU-145 prostate,4300 nM
same,GI50,MDA-MB-435,22 nM
same,TGI,MDA-MB-435,5770 nM
same,GI50,TK-10 renal,30.7 nM
same,TGI,TK-10 renal,89.5 nM
same,GI50,OVCAR-4 ovarian,5.58 nM
same,TGI,OVCAR-4 ovarian,45.1 nM
